Source: patent publication US20230399661A1, “SHUTTLE AGENT PEPTIDES OF MINIMAL LENGTH AND VARIANTS THEREOF ADAPTED FOR TRANSDUCTION OF CAS9-RNP AND OTHER NUCLEOPROTEIN CARGOS” (priority 2020, published 2023)

Legend:
Type in all cases: cell-based, Human
[1] = tested on: HeLa cells; assay: GFP-NLS transduction in presence of Cas9-RNP complex coated with small molecules; conditions: shuttle agent FSD250, up to 10 mM of the small molecule
Method: HeLa cells were plated (20 000 cells/well) in a 96 well-plate the day prior to the experiment in DMEM containing 10% FBS. The Cas9-RNP complex coated with small molecules was prepared by mixing a Cas9-NLS recombinant protein (5 μM) complexed with a crRNA/tracrRNA (4 μM) targeting the beta-2 microglobulin (B2M) gene with 0, 100 nM, 1 μM, 10 μM, 100 μM, 1 mM or 10 mM of either 1,3-diaminoguanidine monohydrochloride, 3,5-diamino-1,2,4-triazole, guanidine hydrochloride or L-arginine amide dihydrochloride. The Cas9 RNP complex coated with small molecules was completed to […] with PBS. The delivery mix was prepared by mixing a synthetic peptide shuttle agent (10 μM), the GFP-NLS (10 μM) with or without the Cas9 RNP complex coated or not with small molecules and completed to 50 μL with phosphate-buffered saline PBS. […] Cells were then analyzed by flow cytometry.
Hypothesizing that the inhibitory effect of the sgRNA was due to the negatively charged phosphate backbone of the RNA, we attempted to neutralize the negative charges by coating the Cas9-RNP complexes with small positively charged molecules prior to transduction. Delivery of GFP in HeLa cells in the presence of Cas9-RNP was assessed in the presence of small positively charged molecules such as 1,3-diaminoguanidine monohydrochloride; 3,5-diamino-1,2,4-triazole; guanidine hydrochloride; or L-arginine amide dihydrochloride.

[2] = tested on: HeLa cells; assay: GFP-NLS transduction in the presence or absence of Cas9-RNP complex, flow cytometry; parameters: GFP transduction efficiency: concentration or dose not given beside the values; conditions: for resistance/sensitivity of GFP transduction to inhibition by Cas9-RNP: presence vs absence of Cas9-RNP
Method: (§1) HeLa cells were plated (20 000 cells/well) in a 96 well-plate the day prior to the experiment in DMEM containing 10% FBS. A mix was prepared containing a synthetic peptide shuttle agent (10-30 μM), the GFP-NLS (10 μM) with or without a Cas9-NLS recombinant protein (2.5 μM) complexed with a crRNA/tracrRNA (2 μM) targeting the beta-2 microglobulin (B2M) gene and completed to 50 μL with PBS. Cells were washed once with PBS and the shuttle/GFP-NLS/Cas9-RNP mix was added to the cells and incubated for one minute. Then 100 μL DMEM containing 10% FBS was added to the mix. Cells were then immediately washed once with PBS and incubated in DMEM containing 10% FBS for two hours. Cells were the analyzed by flow cytometry.
To better understand the inhibitory effect of Cas9-RNP on shuttle agent transduction activity, HeLa cells were incubated with different peptides/shuttle agents and GFP cargo, in the presence or absence of Cas9-RNP, and delivery of GFP was assessed by flow cytometry, as described in Example 1. […] For some shuttle agents, the effect was particularly striking. For example, the GFP transduction efficiency for FSD268 decreased from 92% to 29%, the GFP transduction efficiency for FSD250 decreased from 83% to 13%, the GFP transduction efficiency for FSD10 decreased from 76% to 22%, and the GFP transduction efficiency for FSD395 decreased from 91% to 17%. […] Structure-activity relationships were explored further by repeating the above transduction experiments with shuttle agent variants sharing the same “core” amphipathic cationic alpha helical region as FSD10-15 (FIG. 4A), CM18 (FIG. 4B), and FSD356 (FIG. 4C).

[3] = tested on: HeLa cells; assay: GFP or PI delivery by short/truncated shuttle agents, flow cytometry; conditions: GFP or PI cargo
Method: HeLa cells were plated (20 000 cells/well) in a 96 well-plate the day prior to the experiment in DMEM containing 10% FBS. Each delivery mix comprising a synthetic peptide shuttle agent (10-30 μM) and GFP-NLS (10 μM) was prepared and completed to 50 μL with RPMI 1640 media. Cells were washed once with phosphate-buffered saline (PBS) and the shuttle/GFP-NLS mix was added to the cells and incubated for five minutes. Then 100 μL DMEM containing 10% FBS was added to the mix. Cells were then immediately washed once with PBS and incubated in DMEM containing 10% FBS for two hours. Cells were then analyzed by flow cytometry.
HeLa cells were plated (20 000 cells/well) in a 96 well-plate the day prior to the experiment in DMEM containing 10% FBS. […] Cells were then analyzed by flow cytometry.
To test the transduction activity of short/truncated synthetic shuttle agents (e.g., generally having less than 20 amino acids), HeLa cells were incubated with control peptides and N-terminal shuttle agent fragments of different lengths and delivery of GFP or PI was assessed by flow cytometry as described in Example 1. […] The Overall Delivery Factor represents a single number that accounts for the toxicity of each shuttle agent/peptide, as well as its ability to deliver GFP and PI, and was calculated as follows: […]

[4] = tested on: HeLa cells; assay: Large-scale screening for propidium iodide (PI) transduction activity, flow cytometry; conditions: data not shown
Method: HeLa cells were plated (20 000 cells/well) in a 96 well-plate the day prior to the experiment in DMEM containing 10% FBS. Each delivery mix comprising a synthetic peptide shuttle agent (10-30 μM) and the propidium iodide (PI) (10 μg/mL) were prepared and completed to 50 μL with PBS. Cells were washed once with PBS and the shuttle/PI mix was added to the cells and incubated for one minute. Then 100 μL DMEM containing 10% FBS was added to the mix. Cells were then immediately washed once with PBS and incubated in DMEM containing 10% FBS for two hours. Cells were then analyzed by flow cytometry. […]
Due to the large number of peptides screened, negative controls were performed in parallel for each experimental batch and included a “no treatment” (NT) control in which the cells were not exposed to shuttle peptide or cargo, as well as a “cargo alone” control in which cells were exposed to the cargo in the absence of shuttle agent. […] Mean PI or GFP-NLS delivery score was calculated by multiplying the mean fluorescence intensity (of at least duplicate samples) measured for the viable PI+ or GFP+ cells by the mean percentage of viable PI+ or GFP+ cells, divided by 100,000 for GFP delivery or by 10,000 for PI delivery. […]

[5] = tested on: RH-30 cells; assay: PMO-FITC transduction in the presence of sgRNA spiked in the medium, flow cytometry; conditions: 5 μM shuttle agent, 6 μM PMO-FITC, 2 μg of sgRNA (4 μg/mL)
Description: Nuclear delivery of Cas9-sgRNA complexes (hereinafter Cas9-RNP) via first- and second-generation synthetic peptide shuttle agents generally occurs less efficiently than delivery of a Cas9 proteinaceous cargo alone (i.e., without its corresponding sgRNA; see Krishnamurthy et al., 2019, supplementary FIG. 6). The negative effect of the sgRNA (without Cas9) on shuttle agent-mediated transduction of a fluorescently-labelled charge-neutral polynucleotide analog cargo (phosphorodiamidate morpholino oligomer (PMO)) is also shown in FIG. 2A. Briefly, RH-30 cells (150,000 cells/well in 24-well dish) were contacted with a delivery mix containing 6 μM of PMO-FITC and 5 μM of the synthetic peptide shuttle agent FSD250 for 2 minutes in RPMI, in the presence of increasing amounts of sgRNA spiked in the medium. Cells were then washed, incubated in complete medium and then collected for analysis by flow cytometry after 1 h.

[6] = tested on: CFF-16HBEge cells; assay: GFP transduction in the presence or absence of Cas9-RNP in CFF-16HBEge cells
Method: as §1
The above transduction experiments were repeated with FSD10 and FSD375 in a Human Bronchial Epithelial cell line model of cystic fibrosis, CFF-16HBEge.

[7] = tested on: CFF-16HBEge cells; assay: Cas9-RNP delivery, B2M genome editing; conditions: B2M knockout, versus non-treated negative control
Method: HeLa cells were plated (10 000 cells/well) in a 96 well-plate the day prior to the experiment in DMEM containing 10% FBS. CFF-16HBEge cells were plated (10 000 cells/well) in a 96 well-plate the day prior to the experiment in Alpha-MEM containing 10% FBS.
(§2) For Cas9-RNP or ABE-Cas9-RNP transduction, a mix of Cas9-NLS or ABE-Cas9 recombinant protein (2.5 μM) complexed with a crRNA/tracrRNA (2 μM) targeting the beta-2 microglobulin (B2M) gene were co-incubated with 10-20 μM of synthetic peptide shuttle agent in a final volume of 50 μL completed with PBS. Cells were washed once with PBS and the shuttle/Cas9-RNP complex was added to the cells for and incubated for 60 to 90 seconds. Then 100 μL of DMEM (HeLa) or Alpha-MEM (CFF-16HBEge) containing 10% FBS was added to the mix. Cells were then immediately washed once with PBS and incubated in DMEM (HeLa) or Alpha-MEM (CFF-16HBEge) containing 10% FBS.
Genome editing events resulting in the absence of B2M protein (knockout) at the cell surface were determined by flow cytometry 6 days post-transduction. Cells were washed once with PBS and incubated with the anti-B2 microglobulin antibody (PE conjugated) (0.5 μL of anti-B2M-PE in […] 0.5% BSA/PBS) for 45 minutes at room temperature. Cells were washed twice with PBS and detached with 50 µL of Trypsin-EDTA for 10 minutes at 37° C. then inactivated by adding 100 μL of media containing 10% FBS. The percentage of knockout cells (cells without B2M antibody signal) was determined by flow cytometry.
A similar genome editing experiment as in Example 6 was performed in the Human Bronchial Epithelial cell line model of cystic fibrosis, CFF-16HBEge.
(§3) Further transduction experiments in CFF-16HBEge cells were performed to compare the ability of shuttle agents to deliver functional Cas9-RNP genome editing versus ABE-Cas9-RNP base editing complexes. Variants of the shuttle agent FSD10 (FIG. 8A) were tested in parallel, and genome editing/base editing results as evaluated by next-generation sequencing (NGS) are shown in FIGS. 8B and 8C for Cas9-RNP and ABE-Cas9-RNP, respectively.

[8] = tested on: CFF-16HBEge cells; assay: ABE-Cas9-RNP delivery, base editing evaluated by next-generation sequencing; conditions: NGS
Method: as §2, §3

## Cl.N=C(NN)NN [1,3-diaminoguanidine monohydrochloride]
[1]
  GFP transduction activity and Mean GFP delivery Scores in presence of Cas9-RNP coated with charge-neutralizing agent: significantly inhibited

## CM18: CM series peptide, 18 amino acids long; endosome leakage domain in some first generation shuttle agents (KWKLFKKIGAVLKVLTTG; CM18) [reference compound]
[2]; FIGS. 3 and 4B, presence or absence of Cas9-RNP not stated
  GFP delivery score: 1.8
[2]; absence of Cas9-RNP
  GFP transduction efficiency: 32%
[2]; presence of Cas9-RNP
  GFP transduction efficiency: 28%
[2]
  resistance/sensitivity of GFP transduction to inhibition by Cas9-RNP: more resistant
[3]
  transduction activity: transduction activity was observed

## FSD174 Scramble: negative control peptide known to have low or no GFP transduction activity (LGRSGRIKIGGWSALASRARQARGLKIWTQGRL; FSD174 Scramble)
[4]
  PI transduction efficiency relative to cargo alone negative control: lower transduction efficiencies for PI

## FSD250: synthetic peptide shuttle agent; FSD446 with C-terminal segment replaced with a cationic segment (KWKLLKLWSRLLKLWGGSGGGSARAARQAR; FSD250)
[2]; absence of Cas9-RNP
  GFP transduction efficiency: 83%
[2]; presence of Cas9-RNP
  GFP transduction efficiency: 13%
[5]
  cargo transduction efficiency (PMO-FITC): reduced cargo transduction efficiency

## FSD375: FSD10-15 with flanking glycine/serine-rich residues (GGSGGGSKWKLARAFARAIKKLGGSGGGS; FSD375)
[2]; FIG. 4A
  GFP transduction activity relative to FSD10-15: improving GFP transduction activity over FSD10-15
[2]
  resistance/sensitivity of GFP transduction to inhibition by Cas9-RNP: retained the peptide's resistance to Cas9-RNP
[6]
  resistance to Cas9-RNP inhibition of GFP transduction: greater resistance to Cas9-RNP inhibition than FSD10
[7]
  genome editing with Cas9-RNP as cargo: significant genome editing
[8]
  base editing efficiency (ABE-Cas9-RNP): about 15%
